Laboratory results taken from patent publication US10960004B2, “Method for treating cancer patients with severe renal impairment” (TAIHO PHARMACEUTICAL CO., LTD., priority 2016, dated 2021).
Where two headings read alike, the source gives them in different places.

Assay: Pharmacokinetics of FTD and TPI in plasma of solid cancer patients given FTD/TPI combination drug, by renal function cohort
Assay type: in vivo, human
Settings: for CL/F / Cmax / half-life / AUC(0-t): 35 mg/m^2 per once as FTD, oral, twice a day, plasma, mean; for Cmax / half-life / AUC(0-t): human, po; for AUC(0-t): read-out: AUC0-12; for AUC0-12 higher as compared to patients with normal renal function: after repeated administrations, 35 mg/m^2
Description: Pharmacokinetic of FTD was studied in patients with solid cancer including colorectal cancer, when performing a treatment of repeating an administration schedule of orally administering an FTD/TPI combination drug (mixture of FTD and TPI in a molar ratio of 1:0.5) in 35 mg/m^2 per once (as FTD, the same applies hereinafter) for 5 consecutive days twice a day, followed by rest for 2 days twice, followed by rest for 14 days, and repeating this procedure as one cycle. […] Blood collection was performed after administration of the FTD/TPI combination drug on Day 1 and Day 12, at predose and at 0.5, 1, 2, 4, 6, 8, 10, 12 hours after administration, and FTD and TPI concentrations in plasma were measured. Pharmacokinetic parameters of FTD and TPI were calculated using the resulting concentrations in the plasma, and the results were shown in Table 1.

[1] = Day 1, Cohort 0: normal renal function
[2] = Day 1, Cohort 1: mild renal impairment (CLcr 60 to 89 mL/min)
[3] = Day 1, Cohort 2: moderate renal impairment (CLcr 30 to 59 mL/min)
[4] = Day 12, Cohort 0: normal renal function
[5] = Day 12, Cohort 1: mild renal impairment (CLcr 60 to 89 mL/min)
[6] = Day 12, Cohort 2: moderate renal impairment (CLcr 30 to 59 mL/min)
[7] = 35 mg/m2, Day 1, Cohort 0: normal renal function
[8] = 35 mg/m2, Day 1, Cohort 1: mild renal impairment (CLcr 60 to 89 mL/min)
[9] = 35 mg/m2, Day 1, Cohort 2: moderate renal impairment (CLcr 30 to 59 mL/min)
[10] = 35 mg/m2, Day 12, Cohort 0: normal renal function
[11] = 35 mg/m2, Day 12, Cohort 1: mild renal impairment (CLcr 60 to 89 mL/min)
[12] = 35 mg/m2, Day 12, Cohort 2: moderate renal impairment (CLcr 30 to 59 mL/min)

CL/F [1] [L/h] | CL/F [2] [L/h] | CL/F [3] [L/h] | CL/F [4] [L/h] | CL/F [5] [L/h] | CL/F [6] [L/h] | Cmax [7] [ng/mL] | half-life [7] [h] | AUC(0-t) [7] [ng·h/mL] | Cmax [8] [ng/mL] | half-life [8] [h] | AUC(0-t) [8] [ng·h/mL] | Cmax [9] [ng/mL] | half-life [9] [h] | AUC(0-t) [9] [ng·h/mL] | Cmax [10] [ng/mL] | half-life [10] [h] | AUC(0-t) [10] [ng·h/mL] | Cmax [11] [ng/mL] | half-life [11] [h] | SMILES | further results
8.72 | 10.08 | 9.17 | 3.29 | 4.1 | 2.1 | 2880 | 1.26 | 7870 | 3160 | 1.79 | 7290 | 2760 | 1.9 | 8140 | 5240 | 2.09 | 20100 | 4670 | 2.4 | O=c1[nH]c(=O)n([C@H]2C[C@H](O)[C@@H](CO)O2)cc1C(F)(F)F [FTD, α,α,α-trifluorothymidine] | AUC(0-t) [11]: 23400 ng·h/mL; Cmax [12]: 6010 ng/mL; half-life [12]: 3.22 h; AUC(0-t) [12]: 30400 ng·h/mL; AUC0-12 higher as compared to patients with normal renal function (patients with mild renal impairment (Cohort 1)): about 16%; AUC0-12 higher as compared to patients with normal renal function (patients with moderate renal impairment (Cohort 2)): about 51%
148.5 | 105.1 | 64.8 | 128.3 | 83.1 | 62 | 46.5 | 2.04 | 234 | 93.9 | 2.33 | 380 | 100 | 2.42 | 494 | 48.8 | 2.61 | 247 | 67.8 | 2.54 | Cl.N=C1CCCN1Cc1[nH]c(=O)[nH]c(=O)c1Cl [TPI, 5-chloro-6-[(2-iminopyrrolidine-1-yl)methyl]pyrimidine-2,4(1H,3H)-dione hydrochloride] | AUC(0-t) [11]: 383 ng·h/mL; Cmax [12]: 112 ng/mL; half-life [12]: 2.63 h; AUC(0-t) [12]: 602 ng·h/mL
